One may read the logD as the decadic logarithm of the distribution of all forms, ionised or not, between an organic phase and buffer at a given pH. As a reminder, the Ki is a dissociation constant, usually derived from enzyme kinetics or from competition with a known ligand. A word on the ED50: it is the dose at which the effect has come halfway, by size or by number of responders.

Some results are limits rather than exact numbers.

Consider 23 compounds from ChEMBL document CHEMBL2086370 (J Med Chem, 2012).

The subject of data set [1] is Brain. The experiment in a line: Drug uptake in Harlan Sprague-Dawley rat brain at 3 ug/kg, iv up to 60 mins by LC-MS/MS analysis. To be noted: in vivo, 1 h.
Data set [2] in a line: Lipophilicity, log D of the compound at pH 7.4 by potentiometric method. Type of data set: physicochemical. As to conditions: buffer.
In data set [3] the target is Kappa-type opioid receptor (Homo sapiens, UniProt P41145). The experiment in a line: biochemical.
Sequence of Kappa-type opioid receptor (P41145 whole entry): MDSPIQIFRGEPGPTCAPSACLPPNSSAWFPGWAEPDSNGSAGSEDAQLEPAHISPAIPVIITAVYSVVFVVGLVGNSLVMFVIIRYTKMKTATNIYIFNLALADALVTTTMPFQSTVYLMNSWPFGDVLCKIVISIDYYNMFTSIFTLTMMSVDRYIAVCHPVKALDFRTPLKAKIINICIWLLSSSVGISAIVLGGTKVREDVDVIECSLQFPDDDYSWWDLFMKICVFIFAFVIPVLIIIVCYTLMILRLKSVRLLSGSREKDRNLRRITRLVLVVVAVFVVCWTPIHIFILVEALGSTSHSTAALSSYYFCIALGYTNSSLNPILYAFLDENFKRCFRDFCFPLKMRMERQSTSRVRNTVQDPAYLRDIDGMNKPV
Description: Displacement of [3H]diprenorphine from human cloned kappa type opioid receptor expressed in CHO cell membranes by scintillation counter
Data set [4] deals with Delta-type opioid receptor (Homo sapiens, UniProt P41143). Put plainly: biochemical.
Sequence of Delta-type opioid receptor (P41143 whole entry): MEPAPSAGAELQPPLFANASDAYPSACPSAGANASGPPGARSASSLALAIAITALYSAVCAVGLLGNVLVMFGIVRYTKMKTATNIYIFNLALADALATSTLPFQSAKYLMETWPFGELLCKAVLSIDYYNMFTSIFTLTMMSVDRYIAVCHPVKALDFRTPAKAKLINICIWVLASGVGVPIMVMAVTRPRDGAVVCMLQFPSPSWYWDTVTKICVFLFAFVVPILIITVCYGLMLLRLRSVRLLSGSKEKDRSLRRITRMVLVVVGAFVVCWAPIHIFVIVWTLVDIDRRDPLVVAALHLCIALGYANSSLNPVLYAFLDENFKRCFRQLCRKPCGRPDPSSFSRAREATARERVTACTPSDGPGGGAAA
Description: Displacement of [3H]diprenorphine from human cloned delta type opioid receptor expressed in CHO cell membranes by scintillation counter
Another data set addresses Mu-type opioid receptor (Homo sapiens, UniProt P35372). The experiment in a line: Displacement of [3H]diprenorphine from human cloned mu type opioid receptor expressed in CHO cell membranes by scintillation counter.
Data set [5] concerns Brain. Put plainly: Drug uptake in Harlan Sprague-Dawley rat brain at 3 ug/kg, iv after 10 mins by LC-MS/MS analysis. Type of data set: ADME, organism-based. To be noted: in vivo, 0.003 mg/kg.
A further data set relates to Rattus norvegicus. Put plainly: In vivo receptor occupancy of NOP receptor in po dosed Harlan Sprague-Dawley rat hypothalamus co-administered with unlabeled tracer compound at 3 ug/kg, iv. The format is functional.

Sequence of Mu-type opioid receptor (P35372 whole entry): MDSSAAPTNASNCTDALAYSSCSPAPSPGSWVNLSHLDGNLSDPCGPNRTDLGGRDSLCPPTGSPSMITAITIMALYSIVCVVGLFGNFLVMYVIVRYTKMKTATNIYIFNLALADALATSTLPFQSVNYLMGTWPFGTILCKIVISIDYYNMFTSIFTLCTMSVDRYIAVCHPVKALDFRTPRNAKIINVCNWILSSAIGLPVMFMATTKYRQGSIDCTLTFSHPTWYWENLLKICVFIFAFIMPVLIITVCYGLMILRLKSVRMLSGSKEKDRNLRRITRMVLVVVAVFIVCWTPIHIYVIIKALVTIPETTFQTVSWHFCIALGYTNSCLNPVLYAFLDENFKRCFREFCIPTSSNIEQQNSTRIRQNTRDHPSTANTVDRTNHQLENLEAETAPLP

`CN(C)C(=O)C(CN1CCC2(CC1)OCCc1cc(F)sc12)Cn1cccn1.O=C(O)C(O)C(O)C(=O)O` (single isomer, unassigned; (+)) showed an SUV in the data set with Brain [1] of 65%. Besides, the logD in data set [2] (read-out: logD) was determined as 2.84.

As to `CN(C)C(=O)C(Cc1ccccc1Cl)CN1CCC2(CC1)OCCc1ccsc12` (racemic), the inhibitory constant (Ki) (in data set [3]; in data set [4]; at Mu-type opioid receptor) was more than 0.4 µM throughout.

`O=C1NCN(c2ccccc2)C12CCN([C@H]1CC[C@@H]3CCCc4cccc1c43)CC2`: the logD in data set [2] (read-out: logD) is 3.46.

As to `CN(C)C(=O)[C@@H](Cc1ccccc1F)CN1CCC2(CC1)OCCc1cc(F)sc12.O=C(O)C(O)C(O)C(=O)O`, the Ki (in data set [3]; in data set [4]; at Mu-type opioid receptor) was more than 0.4 µM in each case. For the same compound, in data set [2] (read-out: logD), the logD turned out to be 3.89. For the same compound, in the data set on Brain [5], the SUV is 154%.

`CN(C)C(=O)C(Cc1c(F)cccc1F)CN1CCC2(CC1)OCCc1ccsc12` (racemic): the Ki (in data set [3]; in data set [4]; on Mu-type opioid receptor) was more than 0.4 µM throughout.

For the compound `CN(C)C(=O)C(Cc1ccccc1Cl)CN1CCC2(CC1)OCCc1cc(F)sc12` (single isomer, unassigned; (+)), the inhibition constant (Ki) (in data set [3]; in data set [4]; on Mu-type opioid receptor) was more than 0.4 µM each time. Also, in data set [2] (read-out: logD), the logD turned out to be 4.38. In addition, in the data set on Brain [5], the SUV is on record as 208%.

As to `CN(C)C(=O)C(Cc1cscn1)CN1CCC2(CC1)OCc1ccc(F)cc12` (configuration not stated), the SUV with Brain [1] stood at 25%. Moreover, the inhibitory constant (Ki) (in data set [3]; in data set [4]; on Mu-type opioid receptor) was more than 0.4 µM throughout. Besides, the log distribution coefficient (logD) in data set [2] (read-out: logD) is 2.02.

In turn, `CNC(=O)Cn1c(=O)n(C2CCN([C@@H]3Cc4cccc5cccc3c45)CC2)c2ccccc21` returned an SUV in the data set on Brain [1] of 0%.

`CN(C)C(=O)C(CN1CCC2(CC1)OCCc1ccsc12)Cn1cccn1.O=C(O)C(O)C(O)C(=O)O` (single isomer, unassigned; (-)) gave an SUV in the data set on Brain [1] of 15%. Besides, in data set [2] (read-out: logD), the pH-dependent lipophilicity (logD) was 2.03.

As to `NC(=O)C(Cc1ccccc1Cl)CN1CCC2(CC1)OCCc1cc(Cl)sc12` (configuration not stated), the SUV in the data set with Brain [1] stood at 145%. In addition, the logD in data set [2] (read-out: logD) was 4.58.

Consider `CNC(=O)C(Cc1ccccc1Cl)CN1CCC2(CC1)OCCc1cc(Cl)sc12` (configuration not stated), for which the SUV in the data set with Brain [1] turned out to be 87%. The pH-dependent lipophilicity (logD) in data set [2] (read-out: logD) stood at 3.77.

With `CN(C)C(=O)C(Cc1ccccc1F)CN1CCC2(CC1)OCCc1ccsc12` (racemic), the Ki (in data set [3]; in data set [4]; at Mu-type opioid receptor) was more than 0.4 µM throughout.

`CN(C)C(=O)C(Cc1ccccc1F)CN1CCC2(CC1)OCCc1cc(Cl)sc12.O=C(O)C(O)C(O)C(=O)O` (single isomer, unassigned; (+)) had an SUV in the data set on Brain [1] of 88%. Besides, the Ki (in data set [3]; in data set [4]; at Mu-type opioid receptor) was more than 0.4 µM each time. In data set [2] (read-out: logD), the logD stood at 4.27.

On to `CN(C(=O)C(Cc1ccccc1Cl)CN1CCC2(CC1)OCCc1cc(F)sc12)C1CC1` (single isomer, unassigned; (-)), for which, in the data set on Brain [1], the SUV amounted to 72%. Moreover, the logD in data set [2] (read-out: logD) is 5.52.

As to `CNC(=O)[C@@H](Cc1ccccc1F)CN1CCC2(CC1)OCCc1cc(F)sc12` [NOP-1A], the logD in data set [2] was found to be 3.5. Also, the SUV in the data set on Brain [5] is listed as 124%.

For the compound `CN(C)C(=O)C(CN1CCC2(CC1)OCCc1ccsc12)Cn1cccn1` (racemic), the inhibitory constant (Ki) (in data set [3]; in data set [4]; at Mu-type opioid receptor) was more than 0.4 µM in each case.

In the data set on Brain [1], `COC(=O)CN1CN(c2ccccc2)C2(CCN(Cc3cccc4ccccc34)CC2)C1=O` gave an SUV of 6%. Also, the logD in data set [2] (read-out: logD) was determined as 3.85.

On to `CC(C)N(C)C(=O)[C@@H](Cc1ccccc1F)CN1CCC2(CC1)OCCc1cc(F)sc12`, for which the pH-dependent lipophilicity (logD) in data set [2] (read-out: logD) worked out at 4.47. This compound also registered an SUV in the data set on Brain [5] of 143%.

The compound `CNC(=O)C(Cc1ccccc1F)CN1CCC2(CC1)OCCc1cc(Cl)sc12` (single isomer, unassigned; (-)) showed an SUV in the data set with Brain [1] of 46%. For the same compound, in data set [2] (read-out: logD), the logD came out at 4.19.

Take `Cc1cccc2c1CC[C@H](CN1CCC(c3c(Cl)cccc3Cl)CC1)C[C@@H]2O`: in the data set on Brain [1], the SUV stood at 130%. Moreover, the Ki (in data set [3]; in data set [4]; on Mu-type opioid receptor) was more than 0.4 µM throughout. Besides, the log distribution coefficient (logD) in data set [2] (read-out: logD) stood at 3.56. Also, the ED50 in the data set with Rattus norvegicus amounted to 6.9 mg/kg.

Compound `CN(C)C(=O)C(Cc1ccccc1Cl)CN1CCC2(CC1)OCCc1cc(Cl)sc12.O=C(O)C(O)C(O)C(=O)O` (single isomer, unassigned; (-)) displayed an SUV in the data set on Brain [1] of 75%. Moreover, the Ki (in data set [3]; in data set [4]; on Mu-type opioid receptor) was more than 0.4 µM each time. Besides, the log distribution coefficient (logD) in data set [2] (read-out: logD) amounted to 4.61.

For the compound `CNC(=O)C(Cc1ccccc1Cl)CN1CCC2(CC1)OCCc1cc(F)sc12` (single isomer, unassigned; (-)), the logD in data set [2] (read-out: logD) was found to be 3.9. In the data set with Brain [5], this compound showed an SUV of 154%.

For the compound `CN(C(=O)C(Cc1ccccc1F)CN1CCC2(CC1)OCCc1cc(F)sc12)C1CC1` (single isomer, unassigned; (-)), the SUV with Brain [1] was determined as 82%. For the same compound, in data set [2] (read-out: logD), the logD is 4.77.
